According to article PMC12391391, “The balance between B55α and Greatwall expression levels predicts sensitivity to Greatwall inhibition in cancer cells” (Nature Communications, 2025):
Like-named read-outs stand apart in the source and are kept apart here.

Legend:
[1] = biological target: T1, Greatwall kinase (GWL, MASTL) (Homo sapiens, UniProt Q96GX5, K72M); test: HTRF kinase assay with purified full-length GWL (K72M) and ENSA; format: biochemical
T1 construct: full-length
T1 sequence (Q96GX5 1-879 K72M): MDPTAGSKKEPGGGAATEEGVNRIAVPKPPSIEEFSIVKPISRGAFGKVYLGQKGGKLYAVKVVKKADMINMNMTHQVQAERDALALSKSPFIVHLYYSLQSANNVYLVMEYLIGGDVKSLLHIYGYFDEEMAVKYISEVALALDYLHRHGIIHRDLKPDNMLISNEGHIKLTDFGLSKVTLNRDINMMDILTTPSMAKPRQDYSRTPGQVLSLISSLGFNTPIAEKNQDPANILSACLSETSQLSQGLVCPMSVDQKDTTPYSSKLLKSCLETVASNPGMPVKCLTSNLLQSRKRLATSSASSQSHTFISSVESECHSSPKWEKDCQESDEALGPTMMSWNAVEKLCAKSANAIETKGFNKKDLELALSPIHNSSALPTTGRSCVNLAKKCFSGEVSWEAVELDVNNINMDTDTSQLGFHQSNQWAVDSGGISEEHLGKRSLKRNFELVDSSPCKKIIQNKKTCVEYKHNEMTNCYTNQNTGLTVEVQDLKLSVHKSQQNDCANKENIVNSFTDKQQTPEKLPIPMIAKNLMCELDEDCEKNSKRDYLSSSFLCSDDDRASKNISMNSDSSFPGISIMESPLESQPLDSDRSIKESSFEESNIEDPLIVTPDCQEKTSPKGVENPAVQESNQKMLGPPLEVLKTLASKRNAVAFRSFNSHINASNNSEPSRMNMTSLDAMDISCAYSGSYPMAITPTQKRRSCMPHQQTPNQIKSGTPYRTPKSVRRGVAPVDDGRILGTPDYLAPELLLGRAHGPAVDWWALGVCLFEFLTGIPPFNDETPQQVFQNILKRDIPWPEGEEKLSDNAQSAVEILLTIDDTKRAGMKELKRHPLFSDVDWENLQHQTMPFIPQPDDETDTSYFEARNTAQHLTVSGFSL

[2] = biological target: T1, Greatwall kinase (GWL, MASTL); test: biochemical; design: HTRF kinase assay with full-length GWL and ENSA, inhibition
Excerpt: To discover small molecules interfering with GWL activity, we screened a kinase-focused subset of the AstraZeneca compound collection in the full-length hyperactive GWL (K72M) homogeneous time-resolved fluorescence (HTRF) assay. The kinase screening collection comprised around 40,000 samples of interest, augmented by exemplars of kinase hinge-binding motifs, literature-reported kinase actives and screening catalogue purchases (mean MW ≈ 360, mean clogP ≈ 2.8), aiming to achieve as wide a coverage of the kinome as possible. Initially, we selected potential active molecules with a z-score ≤ −5 (equivalent to approximately 25% inhibition or better) and performed compound clustering, followed by near-neighbour testing and determination of relevant median inhibitory concentration (IC50) values. Subsequent re-clustering based on GWL inhibitory potency, Cdk1 selectivity, broad kinome selectivity and additional known factors influencing drug developability, such as molecular weight, lipophilicity and the number of hydrogen donors and acceptors, generated six prioritised compound clusters (Supplementary Fig. 1a, b). […] Despite the favourable kinase selectivity profile of cluster 5, we considered this series less attractive due to the limited number of compounds (n = 5) and suboptimal molecular properties for a hit, such as higher lipophilicity, lower binding efficiency (as indicated by ligand-lipophilic efficiency, LLE) and greater molecular weight (Supplementary Fig. 1a, b). […] We selected compound 1 as the lead exemplar of cluster 3 and leveraged it as a foundation for subsequent drug development (Fig. 1a). Structure-activity relationship studies and pharmacokinetic profiling produced several derivative molecules, of which compound 21 provided the best combination of outstanding inhibitory potential, low clearance in mouse microsomes and acceptable solubility (Fig. 1a–c and Supplementary Tables 1–4). […] This assessment was supported by structural modelling of the interaction between compound 21 and the active site of GWL (Fig. 1d). In further support of its GWL-targeting properties, compound 21 diminished the phosphorylation of the canonical GWL substrate ENSA(S67) in Xenopus laevis cytostatic factor (CSF) egg extract (Supplementary Fig. 2). Having satisfied the criteria of prospective GWL inhibitor, the racemic compound 21 was registered as UOS-00054604 and, for the remainder of the manuscript, is referred to as C-604.  Fig. 1 Development and characterisation of the GWL kinase inhibitor C-604. a Chemical structure of the lead exemplar compound 21 and the general synthetic route towards the preparation of pyrrolopyrazine GWL inhibitors. (a) for 4a, (i) NaH, SEM-Cl, DMF, 0 °C, 4 h; (ii) Arnold’s reagent, CHCl3, 60 °C, 20 h; (iii) NaClO2, KH2PO4, NH2SO3H, 1,4-dioxane/water, 0 °C to rt, 2 h, 35% (three steps); for 4b, (i) hexamine, TFA, MW, 80 °C, 20 min; (ii) NaH, SEM-Cl, DMF, 0 °C to rt, 16 h; (iii) NaClO2, KH2PO4, NH2SO3H, 1,4-dioxane/water, 0 °C to rt, 1.5 h, 14% (three steps); (b) 2 M methylamine in THF, T3P, pyridine, EtOAc, 60 °C, 2-4 h, 89-97%; (c) 2-(pyrrolidin-1-yl)ethanol, CuI, L-proline, K2CO3, DMSO, 100 °C, 16 h, 48%; (d) TFA, DCM, rt, 16 h then ethylenediamine, DCM, rt, 3-6 h, 29-92%; (e) 1-methylpiperazine, CuI, L-proline, K2CO3, DMSO, 100 °C, 16 h, 77%; (f) boronate ester, Pd(dppf)Cl2 · DCM, 1,4-dioxane/water, MW, 120 °C, 30 min, 43-81%; (g) boronate ester, Pd(dppf)Cl2 · DCM, 1,4-dioxane/water, MW, 120 °C, 30 min, 56%; (h) amine, K2CO3, DMF, 95 °C, 1 h, 32-67%. b Chemical structure of the lead compound 21 (C-604). c Dose-dependent effect of compound 21 (C-604) on the in vitro GWL activity measured by an HTRF assay utilising purified full-length GWL (K72M) and ENSA. Per cent (%) inhibition was determined from fluorescence intensity values normalised to the signal measured in the control enzyme-free reaction. […]

in vitro [3] = test: in vitro; design: intrinsic clearance in mouse microsomes; conditions: liver microsomes; mouse liver microsomes
Excerpt: (§1) We selected compound 1 as the lead exemplar of cluster 3 and leveraged it as a foundation for subsequent drug development (Fig. 1a). Structure-activity relationship studies and pharmacokinetic profiling produced several derivative molecules, of which compound 21 provided the best combination of outstanding inhibitory potential, low clearance in mouse microsomes and acceptable solubility (Fig. 1a–c and Supplementary Tables 1–4). […] This assessment was supported by structural modelling of the interaction between compound 21 and the active site of GWL (Fig. 1d). In further support of its GWL-targeting properties, compound 21 diminished the phosphorylation of the canonical GWL substrate ENSA(S67) in Xenopus laevis cytostatic factor (CSF) egg extract (Supplementary Fig. 2). Having satisfied the criteria of prospective GWL inhibitor, the racemic compound 21 was registered as UOS-00054604 and, for the remainder of the manuscript, is referred to as C-604.

physchem = test: physchem; design: aqueous solubility at pH 7.0; conditions: pH 7.0; buffer pH 7.0; aqueous buffer pH 7.0
Excerpt: as §1

CDK1/cyclinB [4] = biological target: T2, CDK1/cyclinB (Homo sapiens, UniProt P06493); test: biochemical; design: CDK1/cyclin B and off-target kinase inhibition assay
T2 sequence (P06493 whole entry): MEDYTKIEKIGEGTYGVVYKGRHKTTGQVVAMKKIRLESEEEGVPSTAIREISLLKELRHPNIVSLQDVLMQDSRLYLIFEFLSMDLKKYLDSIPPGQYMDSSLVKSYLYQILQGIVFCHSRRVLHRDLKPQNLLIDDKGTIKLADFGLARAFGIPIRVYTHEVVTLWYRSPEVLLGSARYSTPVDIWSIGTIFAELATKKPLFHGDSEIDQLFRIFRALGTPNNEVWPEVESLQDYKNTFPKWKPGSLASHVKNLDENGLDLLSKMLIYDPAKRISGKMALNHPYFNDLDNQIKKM
T2 sequence (P14635 whole entry partner): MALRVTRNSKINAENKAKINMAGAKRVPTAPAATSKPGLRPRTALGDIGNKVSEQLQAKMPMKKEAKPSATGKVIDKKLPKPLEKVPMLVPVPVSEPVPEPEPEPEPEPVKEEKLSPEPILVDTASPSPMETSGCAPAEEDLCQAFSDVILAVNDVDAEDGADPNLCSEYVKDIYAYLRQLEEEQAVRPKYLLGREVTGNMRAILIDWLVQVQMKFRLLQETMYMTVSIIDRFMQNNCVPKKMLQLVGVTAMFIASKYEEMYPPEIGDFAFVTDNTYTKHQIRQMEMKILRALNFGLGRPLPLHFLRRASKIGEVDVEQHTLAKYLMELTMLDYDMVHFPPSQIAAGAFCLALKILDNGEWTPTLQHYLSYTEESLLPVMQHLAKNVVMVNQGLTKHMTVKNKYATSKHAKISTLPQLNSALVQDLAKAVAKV

in vitro [5] = test: in vitro; design: intrinsic clearance in human microsomes; conditions: liver microsomes, human liver microsomes
Excerpt: as §1

hERG = biological target: T3, hERG (Homo sapiens, UniProt Q12809); test: cell-based; design: hERG channel inhibition
T3 construct: gene KCNH2
T3 sequence (Q12809 whole entry): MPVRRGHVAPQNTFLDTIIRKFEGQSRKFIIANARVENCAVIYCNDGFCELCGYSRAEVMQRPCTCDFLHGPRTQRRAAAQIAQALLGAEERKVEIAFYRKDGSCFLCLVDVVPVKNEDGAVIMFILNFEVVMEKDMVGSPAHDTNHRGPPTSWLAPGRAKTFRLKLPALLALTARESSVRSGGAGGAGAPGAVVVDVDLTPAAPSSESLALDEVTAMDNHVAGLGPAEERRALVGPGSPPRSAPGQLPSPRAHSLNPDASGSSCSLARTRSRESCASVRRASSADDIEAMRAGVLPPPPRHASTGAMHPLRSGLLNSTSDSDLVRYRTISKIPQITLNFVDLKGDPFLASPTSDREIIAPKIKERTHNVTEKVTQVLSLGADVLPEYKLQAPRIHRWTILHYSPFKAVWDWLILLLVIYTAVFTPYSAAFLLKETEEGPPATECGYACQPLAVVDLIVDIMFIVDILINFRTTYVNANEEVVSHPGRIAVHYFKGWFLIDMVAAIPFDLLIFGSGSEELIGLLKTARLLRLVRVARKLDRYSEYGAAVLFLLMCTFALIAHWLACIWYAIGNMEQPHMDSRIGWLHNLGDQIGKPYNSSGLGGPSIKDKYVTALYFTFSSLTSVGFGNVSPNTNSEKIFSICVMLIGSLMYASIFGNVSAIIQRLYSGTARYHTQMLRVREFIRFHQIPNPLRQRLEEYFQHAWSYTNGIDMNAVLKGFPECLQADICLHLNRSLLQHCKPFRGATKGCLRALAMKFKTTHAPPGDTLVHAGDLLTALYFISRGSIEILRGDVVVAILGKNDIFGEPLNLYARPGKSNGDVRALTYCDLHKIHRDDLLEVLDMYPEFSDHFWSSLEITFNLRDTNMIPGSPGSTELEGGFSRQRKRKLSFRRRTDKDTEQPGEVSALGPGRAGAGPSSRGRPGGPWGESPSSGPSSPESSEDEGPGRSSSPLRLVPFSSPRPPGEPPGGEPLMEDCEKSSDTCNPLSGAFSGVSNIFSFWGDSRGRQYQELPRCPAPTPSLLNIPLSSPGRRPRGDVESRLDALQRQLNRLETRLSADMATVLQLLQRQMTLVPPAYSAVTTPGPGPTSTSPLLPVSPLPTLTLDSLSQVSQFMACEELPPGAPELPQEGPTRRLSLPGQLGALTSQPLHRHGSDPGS
Excerpt: as §1

Syk = Syk (Homo sapiens, UniProt P43405); test: biochemical; design: CDK1/cyclin B and off-target kinase inhibition assay; conditions: read-out: off-target pIC50 (converted)
CDK1/cyclinB [6] = biological target: T2, CDK1/cyclinB; test: biochemical; design: CDK1/cyclin B and off-target kinase inhibition assay; conditions: read-out: off-target pIC50 (converted)

Compound	IC50 [2]	microsomal CLint (in vitro [3])	also measured
CNC(=O)c1c[nH]c2ncc(-c3ccc(OCCN4CC[C@@H](c5ccccc5)C4)cc3)nc12 [21 (S), compound 21, S stereoisomer]			IC50 [1]: 0.0109 ± 0.002 µM
CNC(=O)c1c[nH]c2ncc(-c3cccnc3)nc12 [compound 10, 10]	0.507 µM		
CNC(=O)c1c[nH]c2ncc(-c3ccc(OCCN4CC[C@H](c5ccccc5)C4)cc3)nc12 [21 (R), compound 21, R stereoisomer]			IC50 [1]: 0.0133 ± 0.0064 µM
CNC(=O)c1c[nH]c2ncc(OCCN3CCCC3)nc12 [compound 6, 6]	5.88 µM		
CNC(=O)c1c[nH]c2ncc(-c3ccc(OCCN4CCOCC4)cc3)nc12 [compound 15, 15]	0.191 µM	11 µL/min/mg	
CNC(=O)c1c[nH]c2ncc(-c3ccc(OCCN4CCN(C)CC4)cc3)nc12 [compound 16, 16]	0.031 µM	18 µL/min/mg	
CNC(=O)c1c[nH]c2ncc(-c3ccc(OCCN4CCCC4)cc3)nc12 [compound 19, 19]		37 µL/min/mg	
CNC(=O)c1c[nH]c2ncc(-c3cccc(CN(C)C)c3)nc12 [compound 11, 11]	0.206 µM		
CNC(=O)c1c[nH]c2ncc(-c3ccc(N4CCN(C)CC4)cc3)nc12 [compound 14, 14]		83 µL/min/mg	solubility (physchem): 260 µM; IC50 (CDK1/cyclinB [4]): > 30 µM; microsomal CLint (in vitro [5]; read-out: Cl (human)): 9 µL/min/mg
CNC(=O)c1c[nH]c2ncc(-c3ccc(OCCN4CCCCC4)cc3)nc12 [compound 20, 20]		12 µL/min/mg	solubility (physchem): 585 µM
CNC(=O)c1c[nH]c2ncc(-c3cccc(C(=O)NCCN(C)C)c3)nc12 [compound 12, 12]	0.062 µM		
CNC(=O)c1c[nH]c2ncc(-c3ccc(OCCN4CCC(OC)CC4)cc3)nc12 [compound 18, 18]			solubility (physchem): 504 µM
CNC(=O)c1c[nH]c2ncc(N3CCN(C)CC3)nc12 [compound 7, 7]	4.24 µM		
CNC(=O)c1c[nH]c2ncc(-c3cn(C)c4ccccc34)nc12 [compound 1, 1]		196 µL/min/mg	solubility (physchem): 15 µM; IC50 (CDK1/cyclinB [4]): 1.48 µM; IC50 (hERG): > 30 µM; IC50 ([2]; read-out: K72MGWL HTRF pIC50 (converted)): 0.1 µM; IC50 (Syk): 0.0251 µM; IC50 (CDK1/cyclinB [6]): 3.16 µM; microsomal CLint (in vitro [5]; read-out: Cl (human)): 147 µL/min/mg; microsomal CLint (in vitro [5]; read-out: hMic Clint): 45 µL/min/mg
CNC(=O)c1c[nH]c2ncc(-c3ccc(C(=O)NCCN(C)C)cc3)nc12 [compound 13, 13]	0.094 µM		
CNC(=O)c1c[nH]c2ncc(-c3ccc(OCCN4CCN(C(C)=O)CC4)cc3)nc12 [compound 17, 17]	0.08 µM	7 µL/min/mg	
CNC(=O)c1c[nH]c2ncc(-c3ccc(C#N)cc3)nc12 [compound 8, 8]	0.339 µM		
